{"source": "patent US20020035061A1", "about": "“COMPOSITIONS AND METHODS FOR TREATING INFECTIONS USING CATIONIC PEPTIDES ALONE OR IN COMBINATION WITH ANTIBIOTICS” (priority 1996, published 2002)", "key": {"P. vulgaris": {"tested_on": "P. vulgaris", "assay": "Agarose dilution assay (MIC)", "type": "cell-based"}, "[1]": {"tested_on": "various bacterial strains", "assay": "Broth dilution assay (MIC)", "type": "cell-based", "protocol": "Typically 100 μl of calcium and magnesium supplemented Mueller Hinton broth is dispensed into each well of a 96-well microtitre plate and 100 μl volumes of two-fold serial dilutions of the peptide are prepared across the plate. One row of wells receives no peptide and is used as a growth control. Each well is inoculated with approximately 5×10^5 CFU of bacteria and the plate is incubated at 35-37° C. for 16-20 hours.\nFor example, MIC values in μg/ml are established by broth dilution assay (Table 13) or by agarose dilution assay (Table 14) for a series of cationic peptides against various bacterial strains."}}}
{"sequence": "ILKKFPFFPFRRK [MBI 11A1CN]", "values": [{"measurement": "MIC", "setting": "P. vulgaris; P. vulgaris SBPV1", "value": ">128", "unit": "µg/mL"}, {"measurement": "Peptide MIC values", "setting": "P. vulgaris; agarose dilution, P. vulgaris ATCC 13315", "value": ">128", "unit": "µg/mL"}, {"measurement": "MIC", "setting": "[1]; A. calcoaceticus 8191", "value": ">256", "unit": "µg/mL"}, {"measurement": "MIC", "setting": "[1]; E. cloacae 13047", "value": ">256", "unit": "µg/mL"}, {"measurement": "MIC", "setting": "[1]; E. coli 25922", "value": 512, "unit": "µg/mL"}, {"measurement": "MIC", "setting": "[1]; E. coli DH1", "value": 128, "unit": "µg/mL"}, {"measurement": "MIC", "setting": "[1]; E. coli ECO003", "value": ">256", "unit": "µg/mL"}, {"measurement": "MIC", "setting": "[1]; E. coli KL4", "value": 256, "unit": "µg/mL"}, {"measurement": "MIC", "setting": "[1]; E. faecalis 29212", "value": ">256", "unit": "µg/mL"}, {"measurement": "MIC", "setting": "[1]; K. pneumoniae 13883", "value": ">256", "unit": "µg/mL"}, {"measurement": "MIC", "setting": "[1]; K. pneumoniae B44", "value": ">256", "unit": "µg/mL"}, {"measurement": "MIC", "setting": "[1]; P. aeruginosa 27853", "value": ">256", "unit": "µg/mL"}, {"measurement": "MIC", "setting": "[1]; P. aeruginosa 8509041", "value": ">256", "unit": "µg/mL"}, {"measurement": "MIC", "setting": "[1]; P. aeruginosa 9308077", "value": ">256", "unit": "µg/mL"}, {"measurement": "MIC", "setting": "[1]; P. aeruginosa 9503024", "value": ">256", "unit": "µg/mL"}, {"measurement": "MIC", "setting": "[1]; P. aeruginosa H650", "value": ">256", "unit": "µg/mL"}, {"measurement": "MIC", "setting": "[1]; P. aeruginosa H652", "value": ">256", "unit": "µg/mL"}, {"measurement": "MIC", "setting": "[1]; S. aureus 25923", "value": 512, "unit": "µg/mL"}, {"measurement": "MIC", "setting": "[1]; S. aureus 27217", "value": ">256", "unit": "µg/mL"}, {"measurement": "MIC", "setting": "[1]; S. aureus 29213", "value": 512, "unit": "µg/mL"}, {"measurement": "MIC", "setting": "[1]; S. aureus 33593", "value": ">256", "unit": "µg/mL"}, {"measurement": "MIC", "setting": "[1]; S. aureus 8402093", "value": ">256", "unit": "µg/mL"}, {"measurement": "MIC", "setting": "[1]; S. aureus 8809014", "value": ">256", "unit": "µg/mL"}, {"measurement": "MIC", "setting": "[1]; S. aureus 8809025", "value": ">256", "unit": "µg/mL"}, {"measurement": "MIC", "setting": "[1]; S. epidermidis 14990", "value": 512, "unit": "µg/mL"}, {"measurement": "MIC", "setting": "[1]; S. maltophilia 13637", "value": 256, "unit": "µg/mL"}, {"measurement": "MIC", "setting": "[1]; S. maltophilia H361", "value": 256, "unit": "µg/mL"}, {"measurement": "MIC", "setting": "[1]; S. marcescens 13880", "value": ">256", "unit": "µg/mL"}, {"measurement": "MIC", "setting": "[1]; S. marcescens B21", "value": ">256", "unit": "µg/mL"}]}
